Laboratory results: patent US9889183B2, “PKC activators and anticoagulant in regimen for treating stroke” (BLANCHETTE ROCKEFELLER NEUROSCIENCES INSTITUTE, priority 2010, dated 2018)

How the values were obtained:
[1] = system: Aβ in neuro2a (N2a) neuroblastoma cells; assay: Aβ production in N2a cells transfected with human APPSwe/PS1D (ELISA); assay type: cell-based, mouse; conditions: for levels of intracellular Aβ / levels of secreted Aβ: various concentrations; for levels of intracellular Aβ: FIG. 11a; for levels of secreted Aβ: FIG. 11b; for concentration dependence of Aβ inhibition: up to 10 μM to 100 μM, no evidence of downregulation
Method: Cell culture. Rat hippocampal H19-7/IGF-IR cells (ATCC, Manassas, Va.) were plated onto poly-L-lysine coated plates and grown at 35° C. in DMEM/10% FCS for several days until about 50% coverage was obtained. The cells were then induced to differentiate into a neuronal phenotype by replacing the medium with 5 ml N2 medium containing 10 ng/ml basic fibroblast growth factor at 39° C. and grown in T-75 flasks at 37° C. Human SH-SY5Y neuroblastoma cells (ATCC) were cultured in 45% F12K/45% MEM/10% FCS. Mouse N2A neuroblastoma cells were cultured in DMEM/10% FCS without glutamine. Rat hippocampal neurons from 18-day-old embryonic Sprague Dawley rat brains were plated on 12- or 96-well plates coated with poly-D-lysine (Sigma-Aldrich, St. Louis, Mo.) in B-27 neurobasal medium containing 0.5 mM glutamine and 25 μM glutamate (Invitrogen, Carlsbad, Calif.) and cultured for three days in the medium without glutamate. The neuronal cells were grown under 5% CO2 in an incubator maintained at 37° C. for 14 days.
(§1) Aβ Measurement and Cell Viability Assay. Aβ was measured using an Aβ 1-42 human fluorimetric ELISA kit (Invitrogen) according to the manufacturer's instructions. Results were measured in a Biotek Synergy HT microplate reader. AlamarBlue and CyQuant NF (Invitrogen) according to the manufacturer's instructions.
To measure the effects of PKCε activation on Aβ production, mouse neuro2a (N2a) neuroblastoma cells transfected with human APPSwe/PSID were used, which produce large quantities of Aβ. Petanceska et al., J Neurochem. (1996), vol. 74, pp. 1878-1884. […] With bryostatin, which activates PKC by binding to the diacylglycerol-binding site, the inhibition was biphasic with concentrations of 20 nM or higher producing no net effect. This may be explained by the ability of this class of PKC activators to downregulate PKC when used at high concentrations.

[2] = system: SH-SY5Y neuroblastoma cells; assay: Cell survival and proliferation (alamar Blue, CyQuant); assay type: cell-based, human
Method: as §1

[3] = system: TACE in N2a neuroblastoma cells; assay: TACE assay, N2a cells; assay type: cell-based; conditions: N2a mouse neuroblastoma cells, FIG. 13a
Method: (§2) FIGS. 13a, 13b and 13c show effects of (FIG. 13a) bryostatin, BR-101 (DCP-LA) and BR-111 (DHA-CP6) on TACE activity in N2a neuroblastoma cells transfected with human APPSwe/PS1D; (FIG. 13b) various concentrations of bryostatin on TACE activity in rat cortical primary neurons; and (FIG. 13c) BR-111 (DHA-CP6) on TACE activity in rat cortical primary neurons.
(§3) TACE Assay. TACE was measured by incubating 5 μl cell homogenate, 3 μl buffer (50 mM Tris-HCl 7.4 plus 25 mM NaCl plus 4% glycerol), and 1 μl of 100 μM TACE substrate (Aβz-[…]-DPa) (Calbiochem) for 20 min at 37° C. 1.5-ml polypropylene centrifuge tubes. Jin et al., Anal. Biochem. (2002), vol. 302, pp. 269-275. The reaction was stopped by cooling to 4° C. The samples were diluted to 1 ml and the fluorescence was rapidly measured (ex=320 nm, em=420 nm) in a Spex Fluorolog 2 spectrofluorometer.
(§4) Buxbaum et al., J Biol. Chem. (1998), vol. 273, pp. 27765-27767; Etcheberrigaray et al., Proc. Natl. Acad. Sci. USA (2006), vol. 103, pp. 8215-8220. However, many of these earlier studies were carried out in fibroblasts and other non-neuronal cell types, which appear to respond differently to PKC activators than neurons.

TACE in primary neurons = assay: TACE assay, rat primary neurons; assay type: cell-based; conditions: FIG. 13b and 13c
Method: as §2, §3, §4

[4] = system: Endothelin-converting enzyme (ECE); assay: ECE assay in neuroblastoma cells; assay type: cell-based, human; conditions: bryostatin 0.27 nM, BR-101 1 μM, BR-111 1 μM; FIG. 14
Method: ECE assay. […] neuroblastoma cells were incubated with bryostatin (0.27 nM), BR-101 (DCP-LA) (1 μM), and BR-111 (DHA-CP6) (1 μM). Endothelin-converting enzyme (ECE) was measured fluorimetrically using the method of Johnson and Ahn (Anal. Biochem. (2000), vol. 286, pp. 112-118). A sample of cell homogenate (20 μl) was incubated in 50 mM MES-KOH, pH 6.0, 0.01% C12E10 (polyoxyethylene-10-lauryl ether), and 15 μM McaBK2 (7-Methoxycoumarin-4-acetyl [Ala7-(2,4-Dinitrophenyl)Lys9]-bradykinin trifluoroacetate salt) (Sigma-Aldrich). After 60 min at 37° C., the reaction was quenched by adding trifluoroacetic acid to 0.5%. The sample was diluted to 1.4 ml with water and the fluorescence was measured at ex=334 nm, em=398 nm.

**Q.** How did the “levels of intracellular Aβ” value ([1]; 24 hours) turn out when `CCC1CC1CC1CC1CC1CC1CC1CC1CC1CC1CC1CC1CCC(=O)OC` (centres unmarked) [BR-111, methyl-3-(2-((2-((2-((2-((2-((2-ethylcyclopropyl)methyl)cyclopropyl)methyl)cyclopropyl)methyl)-cyclopropyl)methyl)cyclopropyl)methyl)cyclopropyl)propanoate] was run?
**A.** markedly reduced

**Q.** What about the “levels of secreted Aβ” value ([1]; 24 hours) of the same molecule?
**A.** markedly reduced

**Q.** What about the “concentration dependence of Aβ inhibition” value [1] of the same molecule?
**A.** monotonically increasing inhibition

**Q.** What about the “effect on cell survival (alamar Blue)” value [2] of the same molecule?
**A.** no effect

**Q.** And the “effect on proliferation (CyQuant)” value [2]?
**A.** no effect

**Q.** What about the TACE activity [3] of the same molecule?
**A.** small increases

**Q.** What about the TACE activity (TACE in primary neurons) of the same molecule?
**A.** small increases

**Q.** What about the ECE activity [4] of the same molecule?
**A.** sustained increase

**Q.** How did the “concentrations producing no net effect on Aβ (biphasic inhibition)” value ([1]; 24 hours) turn out when `CCC/C=C/C=C/C(=O)O[C@H]1/C(=C/C(=O)OC)C[C@H]2C[C@H]([C@@H](C)O)OC(=O)C[C@H](O)C[C@@H]3C[C@H](OC(C)=O)C(C)(C)[C@](O)(C[C@@H]4C/C(=C/C(=O)OC)C[C@H](/C=C/C(C)(C)[C@]1(O)O2)O4)O3` [Bryostatin-1, bryostatin-1] was run?
**A.** ≥ 20 nM

**Q.** And the “levels of intracellular Aβ” value ([1]; 24 hours)?
**A.** markedly reduced

**Q.** And the “levels of secreted Aβ” value ([1]; 24 hours)?
**A.** markedly reduced

**Q.** And the “effect on cell survival (alamar Blue)” value [2]?
**A.** no effect

**Q.** And the “effect on proliferation (CyQuant)” value [2]?
**A.** no effect

**Q.** What about the TACE activity [3] of the same molecule?
**A.** small increases

**Q.** And the TACE activity (TACE in primary neurons)?
**A.** small increases

**Q.** What about the ECE activity [4] of the same molecule?
**A.** sustained increase

**Q.** Which “levels of intracellular Aβ” value ([1]; 24 hours) does the source give for `CCCCCC1CC1CC1CC1CCCCCCCC(=O)O` (centres unmarked) [BR-101, 2-[(2-pentylcyclopropyl)methyl]cyclopropaneoctanoic acid] here?
**A.** markedly reduced

**Q.** And the “levels of secreted Aβ” value ([1]; 24 hours)?
**A.** markedly reduced

**Q.** And the “concentration dependence of Aβ inhibition” value [1]?
**A.** monotonically increasing inhibition

**Q.** And the “effect on cell survival (alamar Blue)” value [2]?
**A.** no effect

**Q.** And the “effect on proliferation (CyQuant)” value [2]?
**A.** no effect

**Q.** What about the TACE activity [3] of the same molecule?
**A.** small increases

**Q.** And the ECE activity [4]?
**A.** sustained increase
